Structures can show the parent of a compound that is named as a salt.
Assay: in vitro
Conditions: rat, gh3-tre-luc cells, AC50 (uM) modified / 1000

Question: For `CC[C@H](C)[C@@H](C(=O)O)n1sc2ccccc2c1=O` [(2S,3S)-3-Methyl-2-(3-oxo-1,2-benzothiazol-2(3H)-yl)pentanoic acid], which CC50 at 24 h is on record?
Answer: > 90 µM

Question: Which CC50 at 24 h does the source give for `C=CCOc1ccc(CC(=O)O)cc1Cl` [Alclofenac] here?
Answer: > 50 µM

Question: With `Cc1nnc2n1-c1sc(CCC(=O)N3CCOCC3)cc1C(c1ccccc1Cl)=NC2` [Apafant] as the compound, how does the CC50 at 24 h read?
Answer: > 50 µM

Question: For `COC(=O)c1c(Cl)c(Cl)c(C(=O)OC)c(Cl)c1Cl` [Chlorthal-dimethyl], which CC50 at 24 h is on record?
Answer: > 90 µM

Question: With `NC(=S)N/N=C/c1cccnc1` [Nicothiazone] as the compound, how does the CC50 at 24 h read?
Answer: > 50 µM

Question: For `CCOC(=O)[C@@H](N)CS` [Ethyl L-cysteinate hydrochloride], which CC50 at 24 h is on record?
Answer: > 50 µM

Question: For `CN(C)CCCNCCC#N` [3-{[3-(Dimethylamino)propyl]amino}propanenitrile], which CC50 at 24 h is on record?
Answer: > 90 µM

Question: For `Nc1cccc(N)c1` [1,3-Benzenediamine dihydrochloride], which CC50 at 24 h is on record?
Answer: > 90 µM

Question: For `CC(=O)Nc1ccccc1O` [2-Acetamidophenol], which CC50 at 24 h is on record?
Answer: > 90 µM

Question: With `CCCCN(CCCC)CCCCCCN(CCCC)CCCC` [N,N,N',N'-Tetrabutyl-1,6-hexanediamine] as the compound, how does the CC50 at 24 h read?
Answer: > 90 µM

Question: Which CC50 at 24 h does the source give for `CO[Si](OC)(OC)c1ccccc1` [Trimethoxyphenylsilane] here?
Answer: > 90 µM

Question: With `Nc1ccccc1[N+](=O)[O-]` [2-Nitroaniline] as the compound, how does the CC50 at 24 h read?
Answer: > 90 µM

Question: Which CC50 at 24 h does the source give for `CCN(CC)C(=O)c1cccc(C)c1` [DEET] here?
Answer: > 90 µM

Question: With `CN1CCC(=C2c3ccccc3Sc3ccccc32)CC1` [Pimethixene maleate] as the compound, how does the CC50 at 24 h read?
Answer: 4.52 µM

Question: For `Cc1cccc(C(=O)O)c1O` [2-Hydroxy-3-methylbenzoic acid], which CC50 at 24 h is on record?
Answer: > 50 µM

Question: For `Cc1cc(=O)c2c(O)c3c(O)cc(=O)c4c3c3c(cc(O)c1c23)C(C)(C)C=4O` [Geliomycin], which CC50 at 24 h is on record?
Answer: 0.889 µM

Question: For `Cc1cc(C(=O)O)ccc1[N+](=O)[O-]` [3-Methyl-4-nitrobenzoic acid], which CC50 at 24 h is on record?
Answer: > 90 µM

Question: With `OC[C@@H](O)[C@H](O)[C@H](O)[C@@H](O)CO` [D-Galactitol] as the compound, how does the CC50 at 24 h read?
Answer: > 50 µM

Question: Which CC50 at 24 h does the source give for `CCCCOC(=O)CCCCCCCC(=O)OCCCC` [Dibutyl nonanedioate] here?
Answer: > 90 µM

Question: With `CC(C)(C)OC(=O)c1cccc(N)c1` [tert-Butyl-3-aminobenzoate] as the compound, how does the CC50 at 24 h read?
Answer: > 90 µM

Question: With `CCOc1nc2cccc(C(=O)O)c2n1Cc1ccc(-c2ccccc2-c2nnn[nH]2)cc1` [Candesartan] as the compound, how does the CC50 at 24 h read?
Answer: 34.4 µM

Question: With `CC(C)(C)C1CCC(=O)CC1` [4-tert-Butylcyclohexanone] as the compound, how does the CC50 at 24 h read?
Answer: > 90 µM

Question: Which CC50 at 24 h does the source give for `COc1cc(C(=O)NS(=O)(=O)c2ccccc2C)ccc1Cc1cn(C)c2ccc(NC(=O)OC3CCCC3)cc12` [Zafirlukast] here?
Answer: 28.8 µM

Question: Which CC50 at 24 h does the source give for `O=S(=O)(O)c1ccc2cc(O)ccc2c1` [Potassium 6-hydroxynaphthalene-2-sulfonate] here?
Answer: > 90 µM

Question: With `CC(CN(C)C)CN1c2ccccc2S(=O)(=O)c2ccccc21` (stereo not drawn) [Oxomemazine hydrochloride] as the compound, how does the CC50 at 24 h read?
Answer: 37.7 µM

Question: For `Nc1ccc(NC(=O)c2ccc(N)cc2)cc1` [4,4'-Diaminobenzanilide], which CC50 at 24 h is on record?
Answer: > 90 µM

Question: With `Nc1ccccc1O` [2-Aminophenol] as the compound, how does the CC50 at 24 h read?
Answer: 40.6 µM

Question: For `NC(=O)[C@@H]1C[C@]2(NC(=O)NC2=O)c2cc(F)ccc2O1` [Fidarestat], which CC50 at 24 h is on record?
Answer: > 50 µM

Question: With `C/C=C1\NC(=O)[C@H]2CSSCC/C=C/[C@H](CC(=O)N[C@H](C(C)C)C(=O)N2)OC(=O)[C@H](C(C)C)NC1=O` [Romidepsin] as the compound, how does the CC50 at 24 h read?
Answer: 0.0269 µM

Question: For `CCCCNc1ccc(C(=O)OCCN(CC)CC)cc1` [Depolipon], which CC50 at 24 h is on record?
Answer: > 50 µM

Question: Which CC50 at 24 h does the source give for `COC(OC)(C(=O)c1ccccc1)c1ccccc1` [2,2-Dimethoxy-1,2-diphenylethanone] here?
Answer: > 90 µM

Question: For `N#CS` [Potassium thiocyanate], which CC50 at 24 h is on record?
Answer: > 90 µM

Question: For `C[C@@H]1C/C=C/C=C/C=C/C=C/[C@H](O[C@@H]2O[C@H](C)[C@@H](O)[C@H](N)[C@@H]2O)C[C@@H]2O[C@](O)(C[C@@H](O)C[C@H]3O[C@@H]3/C=C/C(=O)O1)C[C@H](O)[C@H]2C(=O)O` [Natamycin], which CC50 at 24 h is on record?
Answer: > 50 µM

Question: For `CC(=O)OC(C)=O` [Acetic anhydride], which CC50 at 24 h is on record?
Answer: > 90 µM

Question: Which CC50 at 24 h does the source give for `CCCC(=O)C(=O)O` [2-Oxopentanoic acid] here?
Answer: > 90 µM

Question: Which CC50 at 24 h does the source give for `O=[N+]([O-])c1nccn1CO[C@@H](CO)[C@H](O)CO` [Doranidazole] here?
Answer: > 50 µM

Question: For `c1ccc2c(c1)-c1cccc3cccc-2c13` [Fluoranthene], which CC50 at 24 h is on record?
Answer: > 90 µM

Question: With `CCC(C)(C)OC(=O)N[C@@H](Cc1c[nH]c2ccccc12)C(=O)N[C@@H](CCSC)C(=O)N[C@@H](CC(=O)O)C(=O)N[C@@H](Cc1ccccc1)C(N)=O` [Amogastrin] as the compound, how does the CC50 at 24 h read?
Answer: > 50 µM

Question: For `O=C1c2ccccc2Cc2ccccc21` [Anthrone], which CC50 at 24 h is on record?
Answer: 13.5 µM

Question: Which CC50 at 24 h does the source give for `CCCCCCCCCCCCCCO` [1-Tetradecanol] here?
Answer: > 90 µM

Question: Which CC50 at 24 h does the source give for `O=CO` [Formic acid, potassium salt] here?
Answer: > 5 µM

Question: For `O=C(c1ccccc1)c1cccc(O)c1` [3-Hydroxybenzophenone], which CC50 at 24 h is on record?
Answer: > 90 µM

Question: Which CC50 at 24 h does the source give for `CC=O` [Acetaldehyde] here?
Answer: 3.09 µM

Question: Which CC50 at 24 h does the source give for `CC(=O)O[C@H]1C[C@@H]2CC[C@@H]3[C@H](CC[C@@]4(C)[C@H]3C[C@H]([N+]3(C)CCCCC3)[C@@H]4OC(C)=O)[C@@]2(C)C[C@@H]1N1CCCCC1` [Vecuronium bromide] here?
Answer: > 50 µM

Question: For `C1CC(COCC2CO2)CCC1COCC1CO1` (stereo not drawn) [2,2'-[Cyclohexane-1,4-diylbis(methanediyloxymethanediyl)]dioxirane], which CC50 at 24 h is on record?
Answer: 59.2 µM

Question: Which CC50 at 24 h does the source give for `CC[N+](C)(CC)CC` [N,N-Diethyl-N-methylethanaminium chloride] here?
Answer: > 90 µM

Question: For `CCCCCCCCCCCCCC(=O)OCC(O)CO` (stereo not drawn) [Tetradecanoic acid, 2,3-dihydroxypropyl ester], which CC50 at 24 h is on record?
Answer: > 90 µM

Question: With `OCCOC[C@H]1O[C@H](OCCO)[C@H](OCCO)[C@@H](OCCO)[C@@H]1OCCO` [Hydroxyethyl starch] as the compound, how does the CC50 at 24 h read?
Answer: > 50 µM

Question: For `C=O` [Formalin], which CC50 at 24 h is on record?
Answer: > 100 µM

Question: For `C=CC(=O)NC(C)C` [N-Isopropylacrylamide], which CC50 at 24 h is on record?
Answer: > 90 µM

Question: With `CC1(C)[C@H]2CC[C@](C)(C2)[C@H]1O` [(1R)-endo-(+)-Fenchyl alcohol] as the compound, how does the CC50 at 24 h read?
Answer: > 90 µM

Question: Which CC50 at 24 h does the source give for `O=C(CCCN1CCN2CCCC2C1)c1ccc(F)cc1` (stereo not drawn) [Azabuperone] here?
Answer: > 50 µM

Question: With `CO/N=C(/C(=O)OC)c1ccccc1COc1ccccc1C` [Kresoxim-methyl] as the compound, how does the CC50 at 24 h read?
Answer: > 90 µM

Question: For `COC(=O)C1=C(C)NC(C)=C(C(=O)OC(C)(C)CN(C)CCC(c2ccccc2)c2ccccc2)C1c1cccc([N+](=O)[O-])c1` (stereo not drawn) [lercanidipine hydrochloride], which CC50 at 24 h is on record?
Answer: 8.65 µM

Question: With `CC(=O)OC1C2(C)CCC(C2)C1(C)C` (stereo not drawn) [Fenchyl acetate] as the compound, how does the CC50 at 24 h read?
Answer: > 90 µM

Same assay, conditions: rat, gh3-tre-luc cells, AC50 (uM) modified / 1000, Tox21_110001=Tox21_112025; viability, 1 nM T3 present, 24 h

Question: Which CC50 at 24 h does the source give for `C=CC[N+]1(C)CC[C@]23c4c5ccc(O)c4O[C@H]2C(=O)CC[C@@]3(O)[C@H]1C5` (stereo partly drawn) [Naloxone methyliodide] here?
Answer: > 50 µM

Same assay, conditions: rat, gh3-tre-luc cells, AC50 (uM) modified / 1000, Tox21_110001=Tox21_200321; viability, 1 nM T3 present, 24 h

Question: For `O=C(O)c1cc(Cl)ccc1Cl` [2,5-Dichlorobenzoic acid], which CC50 at 24 h is on record?
Answer: > 90 µM

Same assay, conditions: rat, gh3-tre-luc cells, AC50 (uM) modified / 1000, Tox21_110001=Tox21_201295; viability, 1 nM T3 present, 24 h

Question: For `COC(=O)Nc1cccc(OC(=O)Nc2cccc(C)c2)c1` [Phenmedipham], which CC50 at 24 h is on record?
Answer: > 90 µM

Same assay, conditions: rat, gh3-tre-luc cells, AC50 (uM) modified / 1000, Tox21_110001=Tox21_202936; viability, 1 nM T3 present, 24 h

Question: Which CC50 at 24 h does the source give for `CCOC(=O)C(Cl)C(C)=O` (stereo not drawn) [Ethyl 2-chloroacetoacetate] here?
Answer: > 90 µM

Same assay, conditions: rat, gh3-tre-luc cells, AC50 (uM) modified / 1000, Tox21_110001=Tox21_202941; viability, 1 nM T3 present, 24 h

Question: For `O=C(CBr)c1ccccc1` [2-Bromoacetophenone], which CC50 at 24 h is on record?
Answer: > 90 µM

Same assay, conditions: rat, gh3-tre-luc cells, AC50 (uM) modified / 1000, Tox21_110001=Tox21_300739; viability, 1 nM T3 present, 24 h

Question: With `COc1cc(Cl)c(OC)cc1Cl` [Chloroneb] as the compound, how does the CC50 at 24 h read?
Answer: > 90 µM

Same assay, conditions: rat, gh3-tre-luc cells, AC50 (uM) modified / 1000, Tox21_110001=Tox21_301758; viability, 1 nM T3 present, 24 h

Question: For `OCCSCSCCO` [2,2'-(Methanediyldisulfanediyl)diethanol], which CC50 at 24 h is on record?
Answer: > 90 µM

Same assay, conditions: rat, gh3-tre-luc cells, AC50 (uM) modified / 1000, Tox21_110001=Tox21_302342; viability, 1 nM T3 present, 24 h

Question: With `Nc1ccc(N=Nc2ccc(-c3ccc(N=Nc4c(S(=O)(=O)O)cc5cc(S(=O)(=O)O)c(N=Nc6ccccc6)c(O)c5c4N)cc3)cc2)c(N)c1` [C.I. Direct Black 38] as the compound, how does the CC50 at 24 h read?
Answer: > 60 µM

Source: publication PMC6792352, “Limited Chemical Structural Diversity Found to Modulate Thyroid Hormone Receptor in the Tox21 Chemical Library” (Environmental Health Perspectives, 2019)
